Measurements: paper PMC10987619, “Identification and structural characterization of small molecule inhibitors of PINK1” (Scientific Reports, 2024)

What was measured:
TcPINK1 [1] = target: T1, TcPINK1 (Tribolium castaneum, UniProt D6WMX4); experiment: Kinase Glo luminescence assay (ATP hydrolysis) IC50 determination; assay type: biochemical; conditions: 1 µM unphosphorylated TcPINK1, 10 µM ATP, 5 min, 30 °C
T1 construct: TcPINK1 (121–570) ampicillin-resistant plasmids were co-expressed in BL21 DE3 E. coli with lambda phosphatase; GST (N, cleaved yes); made in house; host or cells: E. coli BL21 DE3
Method: The Kinase Glo Max (cat #V6071) kit assay was used to measure the ATP consumed in the kinase assays. Unphosphorylated 1 µM TcPINK1 was incubated with 10 µM ATP for 5 min at 30 °C in kinase buffer ([…]). […] The kinase buffer consists of 50 mM Tris–HCl pH 7.5, 300 mM NaCl, 1 mM DTT. 100 µL of kinase at 1 µM was added to 100 µL kinase buffer with inhibitor and left in a 30 °C incubator. After the 5-min mark, 200 µL kinase glo was added to stop the reaction. 100 µL of the sample was then pipetted into 3 wells of an opaque white 96-well plate. The luminescence was measured using the Orion II Microplate Luminometer and obtained using the Simplicity 4.2 program. […] The ATP concentration remaining in the reaction was calculated from the linear equation of the ATP standard curve. This number was then divided by the amount of ATP initially present and multiplied by 100 to obtain the percent inhibition. The values were normalized according to the baseline (no inhibitor). The points plotted on a non-linear regression graph in GraphPad Prism 7. The IC50 value and standard deviation were determined in GraphPad.

human PINK1 (HsPINK1) = target: T2, human PINK1 (HsPINK1) (Homo sapiens, UniProt Q9BXM7); experiment: In organello Ub4 kinase assay with mitochondria isolated from CCCP-treated HeLa cells; assay type: biochemical; conditions: 100 µM compound, 0.1 mM ATP, 15 min, 30 °C
T2 construct: host or cells: HeLa (mitochondria isolated after CCCP)
T2 sequence (Q9BXM7 78-581): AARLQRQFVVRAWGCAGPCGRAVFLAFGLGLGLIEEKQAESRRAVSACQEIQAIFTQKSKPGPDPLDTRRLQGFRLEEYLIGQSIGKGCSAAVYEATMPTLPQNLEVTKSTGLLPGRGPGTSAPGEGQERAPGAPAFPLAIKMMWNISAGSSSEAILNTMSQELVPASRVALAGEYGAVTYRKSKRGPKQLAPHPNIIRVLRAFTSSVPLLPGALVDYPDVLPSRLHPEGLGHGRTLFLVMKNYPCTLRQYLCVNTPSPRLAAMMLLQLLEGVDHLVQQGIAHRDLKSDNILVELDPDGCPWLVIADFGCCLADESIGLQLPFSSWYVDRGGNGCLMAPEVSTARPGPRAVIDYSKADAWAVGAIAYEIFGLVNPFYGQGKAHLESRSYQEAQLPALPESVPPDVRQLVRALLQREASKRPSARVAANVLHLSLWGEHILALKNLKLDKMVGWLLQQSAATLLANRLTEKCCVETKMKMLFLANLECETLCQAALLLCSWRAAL
Method: Wild type (WT) HeLa cells (ATCC #CCL-2) were cultured in DMEM medium supplemented with 10% fetal bovine serum (FBS) at 37 °C and 5% CO2 in a humidified atmosphere. Cells were then treated with 20 µM CCCP for 3 h to induce the accumulation of PINK1. Cells were then washed twice in ice-cold mitochondrial isolation buffer (MIB: 20 mM HEPES, 70 mM sucrose, 220 mM mannitol, pH 7.4, 1 mM EDTA, Complete protease inhibitors), resuspended in MIB and lysed using nitrogen cavitation for 5 min at 500 psi. Cell debris were removed by centrifugation at 500 g for 5 min, and mitochondria were pelleted by centrifugation at 20,000g for 20 min. 7.5 µg of mitochondria was incubated with 3.75 µg Ub4, 5 mM MgCl2, 0.1 mM ATP and 100 µM of each inhibitor for 15 min at 30 °C. The reaction was quenched with Laemlli buffer and loaded on a gel for immunoblotting as described above. The following antibodies were used: anti-pS65-Ub (E2J6T; rabbit mAb, CST, 62802), anti-PINK1 (D8G3; rabbit IgG mAb; CST, 6946), anti-cytochrome C (136F3, recombinant rabbit mAb, CST, 4280), and HRP-conjugated secondary anti-rabbit (CST, 7074).

TcPINK1 [2] = target: T3, TcPINK1 (Tribolium castaneum, UniProt D6WMX4); experiment: In vitro ubiquitin kinase assay with tetraubiquitin (Ub4), pUb immunoblot; assay type: biochemical; conditions: 100 µM compound; for Inhibition of Ub4 phosphorylation (kinase activity of TcPINK1): 100 µM ATP, 5 min, 30 °C
T3 construct: GST (N, cleaved yes); made in house; host or cells: E. coli
T3 sequence (D6WMX4 121-570 limits assumed): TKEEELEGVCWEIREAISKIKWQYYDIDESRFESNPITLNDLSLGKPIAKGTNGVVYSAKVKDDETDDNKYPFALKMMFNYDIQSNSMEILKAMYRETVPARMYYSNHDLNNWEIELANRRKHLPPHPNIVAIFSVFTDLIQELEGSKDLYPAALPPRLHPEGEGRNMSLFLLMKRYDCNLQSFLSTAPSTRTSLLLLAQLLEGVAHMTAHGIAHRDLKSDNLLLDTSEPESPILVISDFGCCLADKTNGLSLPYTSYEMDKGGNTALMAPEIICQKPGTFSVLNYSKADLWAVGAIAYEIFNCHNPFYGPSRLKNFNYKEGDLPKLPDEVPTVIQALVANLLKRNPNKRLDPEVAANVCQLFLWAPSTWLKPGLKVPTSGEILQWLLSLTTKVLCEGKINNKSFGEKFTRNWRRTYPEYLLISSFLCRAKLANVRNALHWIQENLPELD
Method: Inhibitors were purchased from different sources via Cedarlane Laboratories (catalog # in parenthesis). […] Olaparib was sent by mistake by Adooq Bioscience under cat #P505-15 and identified by LC–MS/MS (MS^1: m/z 435.183; MS^2: m/z 367.157, 281.072). MTK458 was donated by Mitokinin. The racemic PRT-core was custom synthesised by ChemSpace (CSCS02808122161). Kinase activity assays were performed by mixing 5 nM of purified TcPINK1 with 100 µM ATP, 100 µM small molecules from 10 mM stock in DMSO, 200 µM MgCl2 in kinase buffer (final 1% DMSO). The reactions were left in a 30 °C incubator for 5 min for TcPINK1. The reactions were stopped with the addition of Laemmli buffer (2% SDS, 0.1% bromophenol blue (SigmaAldrich), 10% glycerol, 100 mM DTT) final concentration 1X. The entire reaction was loaded onto a 12.5% Tris-Tricine gel (1 M Tris–HCl pH 8.45, 12.5% acrylamide, 0.1% SDS, 0.1% APS, 0.04% TEMED). Protein from a 12.5% polyacrylamide gel were transferred onto an immuno-blot polyvinylidene fluoride (PVDF) membrane (Bio-rad). The membranes were stained with 1% Ponceau and imaged using the ImageQuant LAS 500. The membrane was washed with distilled water and then blocked in 5% BSA diluted in tris buffered saline with 0.1% Tween (TBS-T) for 1 h. The membrane was briefly rinsed and left to incubate with primary antibody anti-pS65-Ub (E2J6T; rabbit mAb, CST, 62802) at a 1:10,000 dilution in TBS-T for 2 h. The membrane was further rinsed three times for 10 min with TBS-T before incubating it with a 1:2000 dilution of secondary antibody, anti-rabbit horseradish peroxidase (HRP)-conjugated antibodies (CST, 7074), in TBS-T. The membrane was rinsed three times for 10 min in TBS followed by the addition of 1 mL ECL solution (BioRad) to the membrane and visualized on the ImageQuant LAS 500. Densitometry was performed using the Fiji software.

[3] = target: FMS-like tyrosine kinase 3 (FLTK3); conditions: read-out: Inhibition of FLTK3; cited from earlier work
GST-TcPINK1 = target: T4, GST-TcPINK1 (Tribolium castaneum, UniProt D6WMX4); experiment: In vitro ubiquitin kinase assay with monoubiquitin, Phos-tag gel; assay type: biochemical; conditions: 5 µM GST-TcPINK1, 30 µM ubiquitin, 1 mM ATP, 37 °C
T4 construct: made in house; host or cells: E. coli
T4 sequence (D6WMX4 with tags, fused parts or gaps limits assumed): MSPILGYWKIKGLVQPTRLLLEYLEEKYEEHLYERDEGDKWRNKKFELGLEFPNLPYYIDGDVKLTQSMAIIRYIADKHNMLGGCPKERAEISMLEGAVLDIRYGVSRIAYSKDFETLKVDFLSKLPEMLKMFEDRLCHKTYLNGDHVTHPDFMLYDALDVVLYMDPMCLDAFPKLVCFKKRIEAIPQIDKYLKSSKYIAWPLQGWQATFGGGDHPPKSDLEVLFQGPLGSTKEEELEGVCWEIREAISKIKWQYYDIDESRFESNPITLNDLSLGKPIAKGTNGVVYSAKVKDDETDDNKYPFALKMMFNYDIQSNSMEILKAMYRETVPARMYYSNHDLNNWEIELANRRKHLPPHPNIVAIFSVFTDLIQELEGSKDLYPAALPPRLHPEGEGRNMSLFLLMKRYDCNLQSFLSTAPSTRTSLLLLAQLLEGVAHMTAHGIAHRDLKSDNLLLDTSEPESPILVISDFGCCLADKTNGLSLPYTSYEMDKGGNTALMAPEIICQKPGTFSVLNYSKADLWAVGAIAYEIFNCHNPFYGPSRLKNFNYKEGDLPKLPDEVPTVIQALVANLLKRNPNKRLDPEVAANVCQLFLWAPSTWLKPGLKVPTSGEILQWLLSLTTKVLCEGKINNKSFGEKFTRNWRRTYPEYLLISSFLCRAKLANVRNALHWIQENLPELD
Method: (a) Thermal shift assay screen of kinase inhibitors against Tribolium castaneum PINK1 (TcPINK1) with melting temperature increase of 1.5 °C and above. Error bars indicate standard error of ΔTm estimation from melting curves (n = 1). (b) In vitro ubiquitin kinase assays with TcPINK1 and tetraubiquitin (Ub4). Reactions were analyzed by immunoblotting against phospho-ubiquitin (pUb). […] The ponceau staining of the above gel is shown as loading control. (c) In vitro ubiquitin kinase assays with 5 μM GST-TcPINK1 and 30 μM ubiquitin, as well as 1 mM ATP at 37 °C (n = 1). Reactions were analyzed using a phos-tag gel and stained by Coomassie blue. (d) Chemical structures of identified PINK1 inhibitors.

[4] = target: T5, human PINK1 (PINK1-3HA) in HeLa S3 cells (Homo sapiens, UniProt Q9BXM7); experiment: HeLa S3 cells IC50 determination (pUb immunoblot after CCCP); assay type: cell-based; conditions: HeLa S3 PINK1-3HA, CCCP 4 h
T5 construct: expressed in transfected cells; host or cells: HeLa S3
T5 sequence (Q9BXM7 78-581): as the sequence (Q9BXM7 78-581) above

[5] = target: T6, endogenous PINK1 in dopaminergic (DA) neurons (Homo sapiens, UniProt Q9BXM7); experiment: Assay with dopaminergic neurons (CCCP, immunoblot); assay type: cell-based; conditions: 48 h compound then 20 µM CCCP 2 h
T6 construct: host or cells: ReN VM cells differentiated to dopamine neurons
T6 sequence (Q9BXM7 78-581): as above

MLK1 = conditions: cited from earlier work
FGR = conditions: cited from earlier work
TcPINK1 [6] = target: T7, TcPINK1 (Tribolium castaneum, UniProt D6WMX4); experiment: Autophosphorylation (transphosphorylation) assay by intact LC-MS; assay type: biochemical; conditions: 100 µM compound, 5 µM TcPINK1, 1 mM ATP, 30 °C
T7 sequence (D6WMX4 128-570 limits assumed): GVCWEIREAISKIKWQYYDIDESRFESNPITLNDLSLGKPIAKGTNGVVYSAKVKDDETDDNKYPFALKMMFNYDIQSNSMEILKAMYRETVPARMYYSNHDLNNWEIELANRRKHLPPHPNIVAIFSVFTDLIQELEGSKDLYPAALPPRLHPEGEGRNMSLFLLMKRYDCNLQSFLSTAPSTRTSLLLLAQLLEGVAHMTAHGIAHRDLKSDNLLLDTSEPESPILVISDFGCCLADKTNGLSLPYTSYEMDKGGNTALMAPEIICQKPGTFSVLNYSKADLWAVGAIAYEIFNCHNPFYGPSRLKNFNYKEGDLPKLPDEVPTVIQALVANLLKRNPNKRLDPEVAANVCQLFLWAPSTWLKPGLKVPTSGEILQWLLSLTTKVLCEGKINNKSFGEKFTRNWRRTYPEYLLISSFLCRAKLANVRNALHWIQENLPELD
Method: Intact protein mass spectrometry was used to monitor transphosphorylation of TcPINK1-D337N by ^15N-TcPINK1-WT, as described previously. ^15N-TcPINK1 at 5 μM was combined with 5 μM TcPINK1-D337N, 100 μM compound of interest, 1 mM ATP, 2 mM MgSO4 in 300 mM NaCl, 50 mM Tris–HCl pH 8, 2 mM DTT with 2% DMSO at 30 °C for transphosphorylation reactions with timepoints of 0 s, 30 s, 60 s, and 120 s. Timepoint reactions were stopped by addition of 0.05% TFA and 2% acetonitrile (final concentrations). Reactions in 20 μL were injected on a Dionex C4 Acclaim 1.0/15 mm column followed by a 10 min 4–50% gradient of ACN in 0.1% formic acid with a flow rate of 40 μL/min. The eluate was analyzed on a Bruker Impact II Q-TOF mass spectrometer equipped with an Apollo II ion funnel ESI source. The multiply charged ions were deconvoluted at 10,000 resolution using the maximum entropy method. The signal intensity of the nonphosphorylated and phosphorylated TcPINK1-D337N peaks were estimated using the DataAnalysis software integration tool and used to calculate the fraction phosphorylated.

[7] = target: T8, TcPINK1 121-570 (TcPINK1-4arom) (Tribolium castaneum, UniProt D6WMX4, F401A/W131A/W142A/Y225A); experiment: Isothermal titration calorimetry; assay type: binding; conditions: AMP-PNP (syringe) into TcPINK1 (cell), 20 °C, one-site model
T8 construct: GST (N, cleaved yes); made in house; host or cells: E. coli BL21 DE3
T8 sequence (D6WMX4 121-570 W131A/W142A/Y225A/F401A): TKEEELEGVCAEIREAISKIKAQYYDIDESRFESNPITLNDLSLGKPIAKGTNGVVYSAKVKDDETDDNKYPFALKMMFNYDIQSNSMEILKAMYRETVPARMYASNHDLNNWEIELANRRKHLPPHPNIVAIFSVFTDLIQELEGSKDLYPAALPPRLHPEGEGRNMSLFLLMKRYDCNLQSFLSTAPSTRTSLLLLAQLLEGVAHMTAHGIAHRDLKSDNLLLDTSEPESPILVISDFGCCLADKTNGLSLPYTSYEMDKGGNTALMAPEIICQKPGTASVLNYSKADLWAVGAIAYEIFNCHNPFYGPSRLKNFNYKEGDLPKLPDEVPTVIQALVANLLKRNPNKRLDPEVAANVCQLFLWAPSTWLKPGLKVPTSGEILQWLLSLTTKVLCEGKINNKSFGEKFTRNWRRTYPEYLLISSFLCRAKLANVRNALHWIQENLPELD
Method: The isothermal titration calorimetry (ITC) assay was performed using the Microcal ITC 200-1 instrument. […] Experiment involved 29 injections of AMP-PNP at 1.5 mM into a sample cell containing 350 μL of 100 µM TcPINK1-4arom at 20 °C. Data was fitted to a one-site model and background was subtracted using the Origin v7 software.

SMILES	IC50 (TcPINK1 [1]) [µM]	Inhibition of human PINK1 Ub4 phosphorylation in organello (human PINK1 (HsPINK1))	Inhibition of Ub4 phosphorylation (kinase activity of TcPINK1) (TcPINK1 [2])	further results
Cc1cccc(Nc2nc(N[C@@H]3CCCC[C@@H]3N)ncc2C(N)=O)c1 [PRT060318]	2.5	most potent inhibitors of human PINK1 kinase activity	inhibit the kinase activity of TcPINK1	–
NC(=O)c1cnc(N[C@@H]2CCCC[C@@H]2N)nc1Nc1ccccc1 (racemic) [PRT-core]	–	–	inhibit the kinase activity of TcPINK1	–
Cn1cc(-c2nc(N[C@@H]3CCCC[C@@H]3N)c(F)c3c2C(=O)NC3)cn1 [TAK-659]	6.4 ± 1	–	inhibit the kinase activity of TcPINK1	IC50 [3]: 0.005 µM
NC(=O)c1cnc(N[C@@H]2CCCC[C@@H]2N)nc1Nc1cccc(-n2nccn2)c1 [PRT062607]	–	most potent inhibitors of human PINK1 kinase activity	inhibits Ub4 phosphorylation most strongly	Inhibition of monoubiquitin phosphorylation (GST-TcPINK1): inhibits TcPINK1; PINK1 levels (HA blot) [4]: not substantially affected; Mfn2 ubiquitination [5]: inhibition of Mfn2 ubiquitination; Potential-dependent cleavage of Opa1 to its short isoform [5]: not affected; pUb signal [5]: reduction of the pUb signal in a dose-dependent manner; IC50 (MLK1): […]; IC50 (FGR): 0.081 µM; TcPINK1 autophosphorylation (TcPINK1 [6]): inhibits TcPINK1 autophosphorylation
Cc1nc(N)sc1-c1ccnc(Nc2ccc(N3CCOCC3)cc2)n1 [CYC116]	65.4 ± 1.1	–	–	–
CNCc1ccc(-c2cc(-c3nc(-c4ccc(S(=O)(=O)C(C)C)cc4)cnc3N)on2)cc1 [VE822]	–	does not significantly impact HsPINK1	–	TcPINK1 activity compared to control (TcPINK1 [2]; Ub4 substrate): 8%
Nc1nc(Nc2ccc(S(N)(=O)=O)cc2)nn1C(=O)c1c(F)cccc1F [JNJ-7706621]	27.6 ± 1.1	–	–	–
Nc1ncnc2c1ncn2[C@@H]1O[C@H](COP(=O)(O)OP(=O)(O)NP(=O)(O)O)[C@@H](O)[C@H]1O [AMP-PNP]	–	–	–	Kd [7]: 96 µM
FC(F)(F)c1cc2c(N[C@@H]3CCCc4ccccc43)ncnc2[nH]1 [MTK458]	–	does not significantly affect Ub4 phosphorylation	–	–
